From patent US20260014133A1, “SUBSTITUTED 3-(l-OXOISOINDOLIN-2-YL)PIPERIDINE-2,6-DIONE/2-(2,6-DIOXOPIPERIDIN-3-YL)ISOINDOLINE-l,3-DIONE ANALOGS AS MODULATORS OF CEREBLON PROTEIN” (St. Jude's Chidren's Research Hospital, Inc., priority 2022, published 2026)

molecular target: 6×His-CRBN-DDB1 protein (Homo sapiens (Human), UniProt Q96SW2); experiment: CRBN Fluorescence Polarization Assay; format: binding; settings: competitive fluorescence polarization; Cy5-O-Len probe 30 nM, 6×His-CRBN-DDB1 200 nM; 1 hour at room temperature; mean of three independent determinations; read-out: CRBN FP (IC50)
Sequence (Q96SW2 whole entry): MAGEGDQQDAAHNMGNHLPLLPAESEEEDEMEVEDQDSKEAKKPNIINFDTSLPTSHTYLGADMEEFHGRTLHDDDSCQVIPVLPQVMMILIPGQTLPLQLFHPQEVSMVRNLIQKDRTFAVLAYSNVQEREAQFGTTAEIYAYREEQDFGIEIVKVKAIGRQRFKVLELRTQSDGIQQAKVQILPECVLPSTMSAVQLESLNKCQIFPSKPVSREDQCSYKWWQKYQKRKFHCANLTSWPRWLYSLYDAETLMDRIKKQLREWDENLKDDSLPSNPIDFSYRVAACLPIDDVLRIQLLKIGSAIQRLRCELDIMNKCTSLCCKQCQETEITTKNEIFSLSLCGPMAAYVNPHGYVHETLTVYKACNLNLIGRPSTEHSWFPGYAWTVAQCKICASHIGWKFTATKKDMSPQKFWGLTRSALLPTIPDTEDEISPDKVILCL
Sequence (Q16531 whole entry partner): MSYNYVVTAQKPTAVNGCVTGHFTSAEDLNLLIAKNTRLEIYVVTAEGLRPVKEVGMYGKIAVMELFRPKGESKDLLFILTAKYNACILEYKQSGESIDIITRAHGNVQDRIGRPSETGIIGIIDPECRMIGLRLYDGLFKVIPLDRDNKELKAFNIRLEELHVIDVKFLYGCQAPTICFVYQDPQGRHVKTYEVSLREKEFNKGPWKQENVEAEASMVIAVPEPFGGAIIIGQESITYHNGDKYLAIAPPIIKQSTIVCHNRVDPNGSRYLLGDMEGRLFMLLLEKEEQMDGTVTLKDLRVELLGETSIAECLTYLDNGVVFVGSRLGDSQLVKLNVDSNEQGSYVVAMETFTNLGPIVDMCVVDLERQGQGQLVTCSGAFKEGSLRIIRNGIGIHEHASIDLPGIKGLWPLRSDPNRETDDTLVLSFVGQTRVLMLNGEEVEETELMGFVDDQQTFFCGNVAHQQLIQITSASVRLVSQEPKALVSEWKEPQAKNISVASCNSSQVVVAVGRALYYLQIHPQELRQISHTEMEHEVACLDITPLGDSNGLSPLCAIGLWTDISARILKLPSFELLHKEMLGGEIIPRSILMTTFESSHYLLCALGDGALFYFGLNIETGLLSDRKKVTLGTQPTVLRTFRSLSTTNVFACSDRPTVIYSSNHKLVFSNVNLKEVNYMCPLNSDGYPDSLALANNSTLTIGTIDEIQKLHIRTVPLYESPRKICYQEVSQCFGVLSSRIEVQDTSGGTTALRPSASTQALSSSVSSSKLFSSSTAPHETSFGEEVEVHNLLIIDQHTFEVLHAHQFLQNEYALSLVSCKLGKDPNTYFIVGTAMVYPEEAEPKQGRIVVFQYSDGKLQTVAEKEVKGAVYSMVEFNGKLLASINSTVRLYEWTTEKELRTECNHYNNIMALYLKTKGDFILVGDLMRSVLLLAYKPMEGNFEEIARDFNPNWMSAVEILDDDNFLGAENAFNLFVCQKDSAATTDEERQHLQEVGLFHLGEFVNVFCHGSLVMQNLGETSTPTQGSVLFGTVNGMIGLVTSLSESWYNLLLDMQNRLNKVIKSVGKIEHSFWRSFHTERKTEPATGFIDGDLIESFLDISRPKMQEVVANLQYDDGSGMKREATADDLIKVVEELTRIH
Experimental: In this competitive fluorescent polarization assay Cy5 conjugated lenalidomide analog (Cy5-O-Len)^13 was used as a fluorescent probe. 6×His-CRBN-DDB1 protein (200 nM) and Cy5-O-Len probe (30 nM) were combined in 20 mM HEPES pH 7, 150 mM NaCl, 0.005% Tween-20 assay buffer. 20 μL of this assay cocktail was dispensed into wells of Corning 3821 black 384-well plates. Compounds were transferred to the assay plate from a dose-response plate using a Pintool on a Biomek FXP Laboratory Automation Workstation (Beckman Coulter). The plates were incubated in the dark for 1 hour at room temperature and then read on an Envision plate reader (PerkinElmer, Massachusetts, USA). IC50 values were determined using a proprietary software RISE (Robust Investigation of Screening Experiments), developed in house on the Pipeline Pilot platform (Biovia, v. 17.2.0). Data represent the mean of three independent determinations.
Cereblon binding activity was determined as described herein above, and the results are provided below in Table 2 for representative disclosed compounds. Compound number (“Cmpd No.”) refers to the compound number (and associated compound information such as structure, name, etc.) as provided in Table 1. In Table 2 below: cereblon binding IC50 values are categorized as follows: “A” represents IC50 value<1 μM, “B” represents IC50 value between 1 and 10 μM, and “C” represents IC50 value>10 μM.

Compared with `Cc1ccc(C(=O)Nc2ccc3c(c2)C(=O)N(C2CCC(=O)NC2=O)C3=O)cc1` (stereo not shown) [Compound 1, N-(2-(2,6-dioxopiperidin-3-yl)-1,3-dioxolsoindolin-5-yl)-4-methylbenzamide], `O=C1CCC(N2Cc3cc(NC(=O)c4ccc(Cl)cc4)ccc3C2=O)C(=O)N1` (stereo not shown) [Compound 13, 4-chloro-N-(2-(2,6-dioxopiperidin-3-yl)-1-oxoisoindolin-5-yl)benzamide] is lower in IC50: 1000 to 10000 nM for the first, < 1000 nM for the second.

`O=C1CCC(N2Cc3cc(C(=O)Nc4ccc(F)cc4)ccc3C2=O)C(=O)N1` (stereo not shown) [Compound 16, 2-(2,6-dioxopiperidin-3-yl)-N-(4-fluorophenyl)-1-oxoisoindoline-5-carboxamide] and `O=C1CCC(N2Cc3cc(NC(=O)c4cccc(F)c4)ccc3C2=O)C(=O)N1` (stereo not shown) [Compound 8, N-(2-(2,6-dioxopiperidin-3-yl)-1-oxoisoindolin-5-yl)-3-fluorobenzamide] fall in the same range of IC50: 1000 to 10000 nM for the first, 1000 to 10000 nM for the second.

`CC(N)c1ccc(C(=O)Nc2ccc3c(c2)CN(C2CCC(=O)NC2=O)C3=O)cc1` (stereo not shown) [Compound 29, 4-(1-aminoethyl)-N-(2-(2,6-dioxopiperidin-3-yl)-1-oxoisoindolin-5-yl)benzamide] and `N#Cc1ccc(C(=O)Nc2ccc3c(c2)CN(C2CCC(=O)NC2=O)C3=O)cc1` (stereo not shown) [Compound 52, 4-cyano-N-(2-(2,6-dioxopiperidin-3-yl)-1-oxoisoindolin-5-yl)benzamide] fall in the same range of IC50: 1000 to 10000 nM for the first, 1000 to 10000 nM for the second.

`Cc1ccccc1C(=O)Nc1ccc2c(c1)CN(C1CCC(=O)NC1=O)C2=O` (stereo not shown) [Compound 33, N-(2-(2,6-dioxopiperidin-3-yl)-1-oxoisoindolin-5-yl)-2-methylbenzamide] and `N#Cc1ccccc1C(=O)Nc1ccc2c(c1)CN(C1CCC(=O)NC1=O)C2=O` (stereo not shown) [Compound 51, 2-cyano-N-(2-(2,6-dioxopiperidin-3-yl)-1-oxoisoindolin-5-yl)benzamide] fall in the same range of IC50: 1000 to 10000 nM for the first, 1000 to 10000 nM for the second.

First: O=C1CCC(N2Cc3cc(NC(=O)c4ccccc4C(F)(F)F)ccc3C2=O)C(=O)N1 (stereo not shown) [Compound 10, N-(2-(2,6-dioxopiperidin-3-yl)-1-oxoisoindolin-5-yl)-2-(trifluoromethyl)benzamide]
Second: O=C1CCC(N2Cc3cc(NC(=O)c4ccccc4C4CC4)ccc3C2=O)C(=O)N1 (stereo not shown) [Compound 49, 2-cyclopropyl-N-(2-(2,6-dioxopiperidin-3-yl)-1-oxoisoindolin-5-yl)benzamide]
The IC50 of the first is lower: < 1000 nM for the first, 1000 to 10000 nM for the second.

First: COCCOc1cccc(C(=O)Nc2ccc3c(c2)CN(C2CCC(=O)NC2=O)C3=O)c1 (stereo not shown) [Compound 53, N-(2-(2,6-dioxopiperidin-3-yl)-1-oxoisoindolin-5-yl)-3-(2-methoxyethoxy)benzamide]
Second: COc1cccc(C(=O)Nc2ccc3c(c2)CN(C2CCC(=O)NC2=O)C3=O)c1 (stereo not shown) [Compound 11, N-(2-(2,6-dioxopiperidin-3-yl)-1-oxoisoindolin-5-yl)-3-methoxybenzamide]
The IC50 of the first is higher: 1000 to 10000 nM for the first, < 1000 nM for the second. The second is the more potent here.

Compared with `O=C1CCC(N2Cc3cc(NC(=O)c4ccccc4)ccc3C2=O)C(=O)N1` (stereo not shown) [Compound 4, N-(2-(2,6-dioxopiperidin-3-yl)-1-oxoisoindolin-5-yl)benzamide], `O=C1CCC(N2Cc3cc(NC(=O)c4ccncc4)ccc3C2=O)C(=O)N1` (stereo not shown) [Compound 7, N-(2-(2,6-dioxopiperidin-3-yl)-1-oxoisoindolin-5-yl)isonicotinamide] is higher in IC50: < 1000 nM for the first, 1000 to 10000 nM for the second.

`NC1(c2ccc(C(=O)Nc3ccc4c(c3)CN(C3CCC(=O)NC3=O)C4=O)cc2)CCC1` (stereo not shown) [Compound 30, 4-(1-aminocyclobutyl)-N-(2-(2,6-dioxopiperidin-3-yl)-1-oxoisoindolin-5-yl)benzamide] and `O=C1CCC(N2Cc3cc(NC(=O)c4ccc(C5CC5)cc4)ccc3C2=O)C(=O)N1` (stereo not shown) [Compound 48, 4-cyclopropyl-N-(2-(2,6-dioxopiperidin-3-yl)-1-oxoisoindolin-5-yl)benzamide] fall in the same range of IC50: 1000 to 10000 nM for the first, 1000 to 10000 nM for the second.

`Cc1cc(C(=O)Nc2ccc3c(c2)CN(C2CCC(=O)NC2=O)C3=O)ccc1F` (stereo not shown) [Compound 56, N-(2-(2,6-dioxopiperidin-3-yl)-1-oxoisoindolin-5-yl)-4-fluoro-3-methylbenzamide] and `CC(C)c1cccc(C(=O)Nc2ccc3c(c2)CN(C2CCC(=O)NC2=O)C3=O)c1` (stereo not shown) [Compound 41, N-(2-(2,6-dioxopiperidin-3-yl)-1-oxoisoindolin-5-yl)-3-isopropylbenzamide] fall in the same range of IC50: 1000 to 10000 nM for the first, 1000 to 10000 nM for the second.

`Cc1ccc(NC(=O)Nc2ccc3c(c2)CN(C2CCC(=O)NC2=O)C3=O)cc1` (stereo not shown) [Compound 17, 1-(2-(2,6-dioxopiperidin-3-yl)-1-oxoisoindolin-5-yl)-3-(p-tolyl)urea] and `CS(=O)(=O)Nc1ccc(C(=O)Nc2ccc3c(c2)CN(C2CCC(=O)NC2=O)C3=O)cc1` (stereo not shown) [Compound 46, N-(2-(2,6-dioxopiperidin-3-yl)-1-oxoisoindolin-5-yl)-4-(methylsulfonamido)benzamide] fall in the same range of IC50: 1000 to 10000 nM for the first, 1000 to 10000 nM for the second.

`Cc1ccc2c(Nc3ccc4c(c3)CN(C3CCC(=O)NC3=O)C4=O)noc2c1` (stereo not shown) [Compound 19, 3-(5-((6-methylbenzo[d]isoxazol-3-yl)amino)-1-oxoisoindolin-2-yl)piperidine-2,6-dione] and `O=C1CCC(N2Cc3cc(Nc4noc5ccccc45)ccc3C2=O)C(=O)N1` (stereo not shown) [Compound 38, 3-(5-(benzo[d]isoxazol-3-ylamino)-1-oxoisoindolin-2-yl)piperidine-2,6-dione] cannot be ordered by IC50: < 1000 nM for the first, < 1000 nM for the second.

First: O=C1CCC(N2Cc3cc(NC(=O)c4[nH]c5ccccc5c4Cl)ccc3C2=O)C(=O)N1 (stereo not shown) [Compound 26, 3-chloro-N-(2-(2,6-dioxopiperidin-3-yl)-1-oxoisoindolin-5-yl)-1H-indole-2-carboxamide]
Second: Cc1cccc(C(=O)Nc2ccc3c(c2)CN(C2CCC(=O)NC2=O)C3=O)n1 (stereo not shown) [Compound 35, N-(2-(2,6-dioxopiperidin-3-yl)-1-oxoisoindolin-5-yl)-6-methylpicolinamide]
The IC50 of the first is higher: > 10000 nM for the first, 1000 to 10000 nM for the second.

`O=C1CCC(N2Cc3cc(NC(=O)COCc4ccccc4)ccc3C2=O)C(=O)N1` (stereo not shown) [Compound 65, 2-(benzyloxy)-N-(2-(2,6-dioxopiperidin-3-yl)-1-oxolsoindolin-5-yl)acetamide] and `O=C1CCC(N2Cc3cc(NC(=O)COc4ccccc4)ccc3C2=O)C(=O)N1` (stereo not shown) [Compound 64, N-(2-(2,6-dioxopiperidin-3-yl)-1-oxoisoindolin-5-yl)-2-phenoxyacetamide] cannot be ordered by IC50: < 1000 nM for the first, < 1000 nM for the second.

`O=C1CCC(N2Cc3cc(NC(=O)c4ccc(CN5CCOCC5)cc4)ccc3C2=O)C(=O)N1` (stereo not shown) [Compound 32, N-(2-(2,6-dioxopiperidin-3-yl)-1-oxoisoindolin-5-yl)-4-(morpholinomethyl)benzamide] and `CN1CCN(Cc2ccc(C(=O)Nc3ccc4c(c3)CN(C3CCC(=O)NC3=O)C4=O)cc2)CC1` (stereo not shown) [Compound 31] fall in the same range of IC50: 1000 to 10000 nM for the first, 1000 to 10000 nM for the second.

`O=C1CCC(N2Cc3cc(NC(=O)c4cccc(C5CC5)c4)ccc3C2=O)C(=O)N1` (stereo not shown) [Compound 50, 3-cyclopropyl-N-(2-(2,6-dioxopiperidin-3-yl)-1-oxoisoindolin-5-yl)benzamide] and `CN(C(=O)c1ccccc1)c1ccc2c(c1)CN(C1CCC(=O)NC1=O)C2=O` (stereo not shown) [Compound 18, N-(2-(2,6-dioxopiperidin-3-yl)-1-oxoisoindolin-5-yl)-N-methylbenzamide] fall in the same range of IC50: 1000 to 10000 nM for the first, 1000 to 10000 nM for the second.

With `O=C1CCC(N2Cc3cc(Nc4nc5ccccc5s4)ccc3C2=O)C(=O)N1` (stereo not shown) [Compound 63, 3-(5-(benzo[d]thiazol-2-ylamino)-1-oxoisoindolin-2-yl)piperidine-2,6-dione] the IC50 was 1000 to 10000 nM.
